Columns and labels:
[1] = test system: non-oxidative pentose phosphate pathway; experiment: Mass spectrometry analysis of 2-fluoro-2-deoxyarabinose metabolites in mouse organs (MRM LC-MS); assay type: in vivo; settings: mice
Experimental: Mice (8-12 weeks old) were treated with 25 μL of 500 mM 2-fluoro-2-deoxyarabinose. 1 hour later, the mice were sacrificed and the metabolites from distinct organs were extracted with 3× with 80% MeOH. Extracted metabolites were dried and analyzed by multiple reaction monitoring liquid chromatography-mass spectrometry (MRM LC-MS).

[2] = test system: enzymes in the pentose phosphate pathway; experiment: Enzymes that metabolize 2-fluoro-2-deoxyarabinose in vitro (FIG. 6); assay type: in vitro ADME
[3] = Positron emission tomography / computed tomography imaging of mice; assay type: in vivo; settings: for tissues in which the probe selectively accumulates: mice, positron emission tomography
Experimental: Positron Emission Tomography, Computed Tomography Imaging. 6-12-week old C57BL/6J female mice and 12-week old female B6.V-Lep^ob/J (Ob/Ob) mice were purchased from the Jackson Laboratory. Animals were anesthetized with 2% isofluorane and injected intravenous in the tail vein with 75-150 μCi of [^18F]-FDA. One hour post-injection, the mice were imaged for 10 minutes on a Siemens Inveon PET scanner and 10 minutes on a MicroCAT II CT system. […] Journal of Digital Imaging 17 (3), 205 (2004)).

[4] = target: T1, 5′ FLAG-tagged human ribokinase (Homo sapiens, UniProt Q9H477); experiment: Ribokinase assay (kinase reaction with isolated FLAG-tagged ribokinase); assay type: biochemical; settings: 20 minutes at 37° C., 3 mM ATP
T1 construct: host or cells: 293T cells, transfected with pMSCV-IRES-YFP (pRBKS); captured with anti-FLAG M2 magnetic beads and eluted with FLAG peptide
Experimental: Human ribokinase plasmid was purchased from OriGene (NM_022128.1). A FLAG sequence was appended 5′ to the ribokinase sequence and the FLAG-tagged ribokinase was subcloned into the retroviral vector pMSCV-IRES-YFP (pRBKS). 293T cells were transfected with the pRBKS vector and Lipofectamine 2000 (Invitrogen) according to manufacturer's protocol. Cells were lysed in RIPA buffer (1% NP-40, 1% Sodium deoxycholate, 0.3% Sodium dodecyl sulfate, […], 1 mM EDTA, 50 mM Tris-HCl pH 6.8). Protein concentration was determined by the BCA Protein Assay Kit (Pierce), and FLAG-tagged ribokinase was captured from 1 mg of lysate with anti-FLAG M2 Magnetic Beads (Sigma) and eluted with 100 μL of FLAG peptide (Sigma), as per the manufacturer's protocol. Cells not transfected with RBKS were lysed as a control.
1 μL of FLAG-tagged ribokinase or control eluent was added to 50 mM Tris-HCl, pH 7.8, 3 mM ATP, 100 mM KCl, 10 mM MgCl2, 1× protease inhibitor cocktail (Roche), and 1 μCi [^3H]-Ribose (Moravek) or [^18F]-FDA in a 10 μL volume. […] In the case of [^3H]-ribose, the samples were dried, placed into scintillation vials, 3 mL of Bio-Safe NA (RPI Corp) was added to each vial, and the samples were measured on a scintillation counter. In the case of [^18F]-FDA, the samples were placed into scintillation vials and counted on a gamma counter. […]

T1 sequence (Q9H477 whole entry): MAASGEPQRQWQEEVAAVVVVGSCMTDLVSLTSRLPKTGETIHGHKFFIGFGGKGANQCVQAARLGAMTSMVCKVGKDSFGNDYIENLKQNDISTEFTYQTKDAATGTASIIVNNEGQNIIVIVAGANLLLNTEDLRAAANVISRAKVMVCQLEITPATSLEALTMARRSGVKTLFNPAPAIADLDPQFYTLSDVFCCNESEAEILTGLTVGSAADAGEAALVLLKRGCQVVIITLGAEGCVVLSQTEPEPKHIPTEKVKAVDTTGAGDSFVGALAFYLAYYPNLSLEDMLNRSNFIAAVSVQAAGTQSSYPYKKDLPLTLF

localization of probe to the liver ([3]; 12 week old C57Bl/6 female (wild-type) mice, 1 hour, PET/CT)	phosphorylation by isolated ribokinase [4]	Compound	metabolic pathway and metabolite in vivo ([1]; in vivo)	tissues that metabolize the probe ([1]; metabolite studies)	metabolism by enzymes in vitro [2]	tissues in which the probe selectively accumulates [3]	tissues in which the probe selectively accumulates ([3]; listed as 18F labelled 2-fluoro-2-deoxyarabinose)
localizing significantly to the liver	phosphorylates	OC[C@H]1O[C@@H](O)C([18F])C1O (some centres unmarked) [[^18F]-FDA, [^18F]-2-fluoro-2-deoxyarabinose]	metabolized in vivo by the non-oxidative pentose phosphate pathway to 4-fluoro-4-deoxysedoheptulose-7-phosphate	metabolized by tissues in addition to the liver, including the spleen, muscles, heart, blood, thyroid, and kidneys	enzymes in the pentose phosphate pathway metabolize	accumulates in organs with high levels of ribokinase	murine liver, kidney and intestinal tissues
–	phosphorylates	[^3H]-Ribose [reference compound]	–	–	–	–	–

Source: patent US9592309B2, “Positron emission tomography probe to monitor selected sugar metabolism in vivo” (The Regents of the University of California, priority 2012, dated 2017)
